Data: patent US6951953B2, “Tumor selective and biodegradable polyphosphazene-platinum(II) conjugate antitumor agent, and preparation method thereof” (EWHA Womans University, priority 2003, dated 2005)
Like-named read-outs stand apart in the source and are kept apart here.

Columns and labels:
[1] = system: gastric tumor cell line (YCC-3); assay: In vivo xenograft test against a gastric tumor cell line (YCC-3); details: YCC-3 xenograft in nu/nu mice; for The tumor tissue size after injection of an antitumor agent: intraperitoneal; for tumor tissue growth rate / inhibition effect on it (in words): versus control group / cisplatin, after 60 days from injection
Procedure: The in vivo sensitivity of the present conjugate drug against a gastric tumor cell line (YCC-3) was assayed using nu/nu mice (6-8 weeks old, 20-25 g). After being treated with 0.25% Trypsin-EDTA, the cultivated tumor cells were centrifuged in PBS solution for 5 minutes. This process was repeated three or more times, and then the tumor cells were made into a single floated tumor cell. The concentration of the tumor cells in PBS solution was calculated from the number of cells measured by a hemocytometer. The tumor cells were then kept in ice and were injected into mice within 30 minutes. The single floated tumor cells (4×10^7) in 100 μl of PBS solution were subcutaneously injected into the right side of each mouse using an 1 ml syringe.
[…] In the case of the control group, only the same amount of PBS solution was injected. Weights of the mice and tumor size were measured every two days. Size of the tumor was calculated with an equation of length×width×width/2.

[2] = system: leukemia L1210 cell line
[3] = system: leukemia L1210 cell line; details: read-out: In vitro (ID50)

`N.N.[Cl][Pt][Cl]` [Cisplatin, reference compound] was tested. Which “The tumor tissue size after injection of an antitumor agent” value (“The tumor tissue size after injection” below) ([1]; 18 days, dosage 4 mg/kg) did it give?
Its value is 161.36 mm^3.

And the “The tumor tissue size after injection” value ([1]; 32 days, dosage 4 mg/kg)?
The value was 330.62 mm^3.

And the “The tumor tissue size after injection” value ([1]; 48 days, dosage 4 mg/kg)?
The value was 588.02 mm^3.

And the “The tumor tissue size after injection” value ([1]; 60 days, dosage 4 mg/kg)?
Its value is 815.79 mm^3.

And the “tumor tissue growth rate / inhibition effect on it (in words)” value [1]?
The value was “not significantly different from that of the control group”.

“poly{[methoxy poly(ethylene glycol)550][glycylglutamato-trans(±trans-(±)-1,2-diaminocyclohexaneplatinum(II)]phosphazene}, {NP(MPEG350)1.12[(GlyGlu)Pt(dach)]0.88}n [Example 7]” was tested. Which “in vivo T/C (%)” value ([2]; dosage 30 mg/kg) did it give?
Its value is 228.2%.

What about the “in vivo T/C (%)” value ([2]; dosage 60 mg/kg) of the same compound?
The value was 209.4%.

What about the IC50 [3] of the same compound?
Its IC50 is > 40 µM.

Which “in vivo T/C (%)” value ([2]; dosage 30 mg/kg) does the source give for “poly{[methoxy poly(ethylene glycol)350][glycylglutamato-trans-(±)-1,2-diaminocyclohexaneplatinum(II)]phosphazene}, {NP(MPEG350)1.5[(GlyGlu)Pt(dach)]0.5}n [Example 1]” here?
The value was 178/30%.

And the IC50 [3]?
The IC50 was 8.2 µM.

Which results are given for “poly{[methoxy poly(ethylene glycol)350][glycylglutamato-trans-(±)-1,2-diaminocyclohexaneplatinum(II)]phosphazene}, {NP(MPEG350)1.2[(GlyGlu)Pt(dach)]0.8}n [Example 2]”?
in vivo T/C (%) ([2]; dosage 30 mg/kg): 208.1%; in vivo T/C (%) ([2]; dosage 60 mg/kg): > 305.6%; IC50 [3]: 6.9 µM

What does the source list for “poly{[methoxy poly(ethylene glycol)350][glycylglutamato-trans-(±)-1,2-diaminocyclohexaneplatinum(II)]phosphazene}, {NP(MPEG350)1.4[(GlyGlu)Pt(dach)]0.6}n [Example 5]”?
in vivo T/C (%) ([2]; dosage 30 mg/kg): 244.3%; in vivo T/C (%) ([2]; dosage 60 mg/kg): 231.1%; IC50 [3]: 6.2 µM

“poly{[methoxy poly(ethylene glycol)350][glycylglutamato-trans-(±)-1,2-diaminocyclohexaneplatinum(II)]phosphazene}, {NP(MPEG350)1.0[(GlyGlu)Pt(dach)]1.0}n [Example 3]” was tested. Which “The tumor tissue size after injection” value ([1]; 18 days, dosage 30 mg/kg) did it give?
The value was 121.92 mm^3.

And the “The tumor tissue size after injection” value ([1]; 18 days, dosage 60 mg/kg)?
The value was 32.69 mm^3.

What about the “The tumor tissue size after injection” value ([1]; 32 days, dosage 30 mg/kg) of the same compound?
The value was 210.38 mm^3.

What about the “The tumor tissue size after injection” value ([1]; 32 days, dosage 60 mg/kg) of the same compound?
The value was 72.08 mm^3.

And the “The tumor tissue size after injection” value ([1]; 48 days, dosage 30 mg/kg)?
The value was 111.23 mm^3.

And the “The tumor tissue size after injection” value ([1]; 48 days, dosage 60 mg/kg)?
Its value is 65.36 mm^3.

And the “The tumor tissue size after injection” value ([1]; 60 days, dosage 30 mg/kg)?
Its value is 22.71 mm^3.

And the “The tumor tissue size after injection” value ([1]; 60 days, dosage 60 mg/kg)?
Its value is 91.10 mm^3.

And the “tumor tissue growth rate / inhibition effect on it (in words)” value [1]?
The value was “outstanding compared with that of cisplatin”.

And the “in vivo T/C (%)” value ([2]; dosage 30 mg/kg)?
Its value is 194.1%.

What about the “in vivo T/C (%)” value ([2]; dosage 60 mg/kg) of the same compound?
The value was “toxic”.

And the IC50 [3]?
Its IC50 is 3.4 µM.

For “pol{[methoxy poly(ethylene glycol)350][glycylglutamato-trans-(±)-1,2-diaminocyclohexaneplatinum(II)]phosphazene}, {NP(MPEG350)1.2[(GlyGlu)Pt(dach)]0.8}n [Example 4]”, which “in vivo T/C (%)” value ([2]; dosage 30 mg/kg) is on record?
Its value is 186.8%.

And the “in vivo T/C (%)” value ([2]; dosage 60 mg/kg)?
Its value is 216.8%.

And the IC50 [3]?
Its IC50 is 3.5 µM.
